The record followed here is patent US20260015364A1, “PIPERAZINE BRIDGE-SUBSTITUTED HETEROCYCLIC PYRIMIDINE COMPOUND” (MEDSHINE DISCOVERY INC., priority 2022, published 2026).

For experiment [1], the system named is p-ERK in GP2D cells. Nature of the experiment: p-ERK inhibition test of GP2D cells (HTRF). The class given is cell-based. To be noted: Homo sapiens, 1 hour compound incubation. The method, then: • 1). GP2D cells are seeded in a transparent 96-well cell culture plate, with 80 μL of cell suspension per well and 8000 cells per well, and the cell plate is incubated in a carbon dioxide incubator at 37° C. overnight; • 2). 2 μL of the compound is added to 78 μL of cell culture medium; after mixing well, 20 μL of the compound solution is taken and added to the corresponding cell plate wells, and the cell plate is put back into the carbon dioxide incubator to incubate for another 1 hour; • 3). After the incubation is completed, the cell supernatant is discarded, and 50 μL of 1× cell lysate is added to each well, and incubated at room temperature for 30 minutes with shaking; • 4). Phospho-ERK1/2 Eu Cryptate antibody and Phospho-ERK1/2 d2 antibody are 20-fold diluted using detection buffer; • 5). […] After the incubation is completed, a multimode microplate reader is used to read HTRF excitation: 320 nm, emission: 615 nm, 665 nm; • 7). The IC50 of the test compound is calculated.
• 1). […] After the incubation was completed, a multimode microplate reader was used to read HTRF excitation: 320 nm, emission: 615 nm, 665 nm; • 7) The IC50 of the test compound was calculated.
In general terms: Time-resolved FRET reads energy transfer from a long-lived donor to a nearby acceptor.

Experiment [2] deals with AsPC-1 human pancreatic cancer cells with KRAS^G12D mutation. Nature of the experiment: AsPC-1 3D CTG experiment (anti-proliferation). The class given is cell-based. To be noted: ASPC1, 168 h, 7 days incubation. From the text: This experiment aims to verify the inhibitory effect of the compounds of the present disclosure on the proliferation of AsPC-1 human pancreatic cancer cells with KRAS^G12D mutation.
Cell line AsPC-1 and RPMI-1640 medium were purchased from GIBCO, and FBS was purchased from Hyclone. The 96-well plate was purchased from Ultra Low Cluster, CellTiter-Glo® 3D Cell Viability Assay reagents (chemiluminescent 3D cell viability assay reagents) were purchased from Promega, and 2104 EnVision plate reader was purchased from PerkinElmer.
AsPC-1 cells were cultured in an incubator at 37° C. with 5% CO2 the conditions of RPMI-1640+10% FBS. Regular passaging was performed, and cells in the logarithmic growth phase were selected for plating. AsPC-1 cells were seeded in a 96-well U-bottom cell culture plate, and each well of 135 μL cell suspension contained 500 AsPC-1 cells. The culture plate was cultured overnight in a 37° C., 5% CO2 incubator with 100% relative humidity. The test compound was diluted 5-fold to the eighth concentration using a pipette, ranging from 200 μM to 2.56 nM, and tested in duplicate. 78 μL of culture medium per well was added to an intermediate plate. Subsequently, 2 μL of the gradient diluted compound per well was transferred to the corresponding wells of the intermediate plate and mixed well. […] A multimode microplate reader was used for reading. […]

Experiment [3] relates to GP2D cell subcutaneously transplanted tumors. In words: In vivo pharmacodynamic experiment of GP2D tumor model. Set-up: species or system Balb/c Nude mice. To be noted: p.o., BID, 28 days of administration. As to the method: In vivo pharmacodynamics of GP2D cell subcutaneously transplanted tumors in Balb/c Nude mice model with human colon cancer
Cell culture: Human colon cancer GP2D cells were cultured in monolayer in vitro. The culture conditions were DMEM/F12 medium+20% fetal bovine serum, and cultured in a 37° C., 5% carbon dioxide incubator. Routine digestion with trypsin-EDTA was performed twice a week for passaging. When the cell saturation reached 80% to 90% and the required quantity was reached, the cells were harvested, counted, resuspended in an appropriate amount of PBS, and mixed with matrigel at a ratio of 1:1 to obtain a cell suspension with a cell density of 25×10^6 cells/mL.
Cell inoculation: 0.2 mL (5×10^6 cells/mouse) of GP2D cells (added with Matrigel with a volume ratio of 1:1) were subcutaneously inoculated into the right back of each mouse. […]
Tumor diameters were measured twice a week with a vernier caliper. […]
The tumor inhibitory efficacy of the compound was evaluated by TGI (%) or relative tumor proliferation rate T/C (%). […] The relative tumor volume (RTV) was calculated based on the results of tumor measurements. The calculation formula is RTV=Vt/V0, where V0 is the average tumor volume measured at the beginning of administration in groups (i.e., D0), and Vt is the average tumor volume measured at a certain measurement. […]

Consider `C#Cc1c(F)ccc2cc(N)cc(-c3ncc4c(N5CC6CCC(C5)N6)nc(OC[C@@]56CC(=C)CN5C[C@@H]5C[C@@H]56)nc4c3F)c12` (single isomer, unassigned) [Compound 3], for which the IC50 (commonly the concentration that inhibits the measured activity by half) was 2.4 nM in experiment [1] and 5.74 nM in experiment [2]. For the same compound, the TGI (commonly the reduction of tumour growth relative to the control group) amounted to 85.57% in experiment [3] (30 mpk) and 98.95% in experiment [3] (100 mpk).
